Source: patent publication US20180297966A1, “COMPOUNDS, COMPOSITIONS, AND METHODS OF MAKING AND USING THE SAME” (INNOVATIVE ANESTHETICS, LLC, priority 2015, published 2018)
Where “and” joins values, the source holds several entries; their conditions need not be identical. Equal values may be shown once. Where a name gives a salt, the structure may show the parent alone. Read-outs that look alike come from different tables or passages of the source.

Tests used:
[1] = pH of exemplary salts with respect to concentration (% w/v); assay type: physicochemical
rats (hindpaw heat pain) = assay: Hindpaw withdrawal latency to a thermal stimulus after injection of a caine salt; assay type: in vivo, Sprague Dawley rats; conditions: 1% by weight solution in water, 100 μl injected into hindpaw of rats, 10 minutes post-injection, compared to naïve animals, N=10 animals/group, cutoff 32 seconds
Procedure: Male Sprague Dawley® rats (200-300 g, Charles River) were housed in groups of two and were maintained in a standard 12-h light/dark cycle and testing was completed in the light portion of the cycle between 09:00-12:00. Animals were placed into the behavioural procedure room 30 min prior to testing to acclimate. When not in testing sessions, food and water were made available ad libitum. Animal testing procedures complied with the ethical guidelines and standards established by the University of Florida's Institutional Animal Care & Use Committee and with the Guide for Care and Use of Laboratory Animals (National Research Council Guide for the Care and Use of Laboratory Animals. Washington, D.C., National Academy Press; 1996.).
1% by weight solutions of 3a-3h were injected into the hindpaw of rats and withdrawal latency to a thermal stimulus was recorded 10 minutes post-injection. Response to hindpaw heat pain was determined by placing unrestrained rats on a clear glass platform under a small plastic cage and rats habituated for 5 min. A radiant heat source was aimed directly under the ventral hindpaw surface and the time to paw withdrawal was recorded. Baseline responses were obtained under naïve conditions (e.g., no injection), while post-treatment effects of caine salts 3a-3h in the respective vehicle (water) were assessed for 10 minutes following injection (100 μl). A cutoff of 32 seconds was used to prevent tissue damage.

| Compound | pH ([1]; Conc. 2% w/v) | pH ([1]; Conc. 5% w/v) | pH ([1]; Conc. 10% w/v) | withdrawal latency to a thermal stimulus (rats (hindpaw heat pain)) | pH [1] |
| --- | --- | --- | --- | --- | --- |
| CCCNC(C)C(=O)Nc1c(C)csc1C(=O)OC (stereo not shown) [Articaine hydrochloride, reference compound] | 4.78 | 4.62 | 4.22 |  |  |
| CCCNC(C)C(=O)Nc1c(C)csc1C(=O)OC.O=C1NS(=O)(=O)c2ccccc21 (stereo not shown) [Articaine saccharinate, Articaine Saccharinate] |  |  |  | significant increase in latency time | 3.83 and 4.15 |
| CC1=CC(=O)NS(=O)(=O)O1.CCCCN1CCCCC1C(=O)Nc1c(C)cccc1C (stereo not shown) [Bupivacaine acesulfamate, Bupivacaine Acesulfamate] |  |  |  | significant increase in latency time | 4.25 and 5.13 and 5.38 |
| CCCCN1CCCCC1C(=O)Nc1c(C)cccc1C (stereo not shown) [Bupivacaine hydrochloride, reference compound] | 5.22 | 4.81 | 4.23 |  |  |
| CCCCN1CCCCC1C(=O)Nc1c(C)cccc1C.O=C1NS(=O)(=O)c2ccccc21 (stereo not shown) [Bupivacaine saccharinate, Bupivacaine Saccharinate] |  |  |  | significant increase in latency time | 3.84 and 3.66 and 5.19 |
| CC1=CC(=O)NS(=O)(=O)O1.CNC[C@H](O)c1ccc(O)c(O)c1 [Epinephrine acesulfamate, Epinephrine Acesulfamate] |  |  |  |  | 4.01 and 4.14 and 4.34 |
| CNC[C@H](O)c1ccc(O)c(O)c1 [Epinephrine hydrochloride, reference compound] | 4.84 | 3.91 | 2.72 |  |  |
| CNC[C@H](O)c1ccc(O)c(O)c1.O=C1NS(=O)(=O)c2ccccc21 [Epinephrine saccharinate, Epinephrine Saccharinate] |  |  |  |  | 3.57 and 4.03 and 4.41 |
| CC1=CC(=O)NS(=O)(=O)O1.CCN(CC)CC(=O)Nc1c(C)cccc1C [Lidocaine acesulfamate] |  |  |  |  | 4.84 and 5.08 and 5.26 |
| CCN(CC)CC(=O)Nc1c(C)cccc1C [Lidocaine hydrochloride, reference compound] | 4.65 | 4.53 | 3.94 |  |  |
| CCN(CC)CC(=O)Nc1c(C)cccc1C.O=C1NS(=O)(=O)c2ccccc21 [Lidocaine saccharinate] |  |  |  |  | 4.31 and 4.41 and 4.51 |
| CC1=CC(=O)NS(=O)(=O)O1.Cc1cccc(C)c1NC(=O)C1CCCCN1C (stereo not shown) [Mepivacaine acesulfamate] | 4.91 | 4.87 | 4.00 | significant increase in latency time |  |
| Cc1cccc(C)c1NC(=O)C1CCCCN1C (stereo not shown) [Mepivacaine hydrochloride, reference compound] | 4.53 | 3.77 | 3.73 |  |  |
| Cc1cccc(C)c1NC(=O)C1CCCCN1C.O=C1NS(=O)(=O)c2ccccc21 (stereo not shown) [Mepivacaine saccharinate, Mepivacaine Saccharinate] |  |  |  | significant increase in latency time | 4.06 and 4.23 |
| CC1=CC([O-])=NS(=O)(=O)O1.[K+] [Potassium acesulfamate, potassium 6-methyl-1,2,3-oxathiazin-4-olate 2,2-dioxide, reference compound] | 5.98 | 6.33 | 5.78 |  |  |
| CC1=CC(=O)NS(=O)(=O)O1.CCCNC(C)C(=O)Nc1ccccc1C (stereo not shown) [Prilocaine acesulfamate, Prilocaine Acesulfamate] | 5.16 | 5.00 | 4.71 | significant increase in latency time |  |
| CCCNC(C)C(=O)Nc1ccccc1C (stereo not shown) [Prilocaine hydrochloride, reference compound] | 4.60 | 3.42 | 2.10 |  |  |
| CCCNC(C)C(=O)Nc1ccccc1C.O=C1NS(=O)(=O)c2ccccc21 (stereo not shown) [Prilocaine saccharinate, Prilocaine Saccharinate] |  |  |  |  | 4.47 and 4.96 and 5.04 |
| Articaine Acesulfamate |  |  |  | significant increase in latency time |  |
